This note sets out measurements from publication PMC12091851, “Replacing a Cereblon Ligand by a DDB1 and CUL4 Associated Factor 11 (DCAF11) Recruiter Converts a Selective Histone Deacetylase 6 PROTAC into a Pan‐Degrader” (Chemmedchem, 2025).

The test system of experiment [1] is MM.1S cells. The experiment is described as follows: CellTiter-Glo cell viability assay. Type of experiment: cell-based, human. Particulars: 72 h; for EC50: Homo sapiens, MM1.S. As to the method: For this purpose, the dilution series were prepared in 200-fold concentration in DMSO and further diluted to 10-fold concentration in medium. The final DMSO concentration was 0.5%. The toxicity of compounds was determined after 72 h using the CellTiter-Glo 2.0 Cell Viability Assay (Promega, Madison, WI, USA, #G9242) according to the manufacturer´s protocol. Subsequently, the luminescence was measured using a Tecan Spark (Tecan Group AG, Maennedorf, Swiss) and the half maximal effective concentration (EC50) was determined by plotting dose response curves and nonlinear regression with GraphPad Prism (GraphPad Software, San Diego, CA, USA). […] Cellular HDAC Inhibition Assay […] with minor changes. […] The DMSO-stock solutions were used to perform a serial dilution in DMSO. […] 10 µL of the substrate solution was added and incubated for 3 h under cell culture conditions. […] S8
A general note: In ATP-based viability assays light output follows the ATP content of the culture.

In another experiment the target is HDAC1 (Homo sapiens, UniProt Q13547). As to the kind of experiment: Simple Western immunoassay, HDAC1 levels in MM.1S cell lysates. Type of experiment: cell-based. Set-up: endogenous in cells; host or cells: MM.1S. Particulars: MM.1S cells, 10 μM, 24 h. As to the method: Figure 3 Initial degradation screening of HDAC1 and 6 by DCAF11‐recruiting PROTACs by Simple Western™ immunoassay analysis of MM.1S cell lysates. MM.1S cells were treated with the indicated compound (10 μM) or vehicle (DMSO) for 24 h. […] Bottom: Representative images from a total of n=3 biological replicates, labeled with spacer type; w/o: without spacer.
Sequence of HDAC1 (Q13547 whole entry): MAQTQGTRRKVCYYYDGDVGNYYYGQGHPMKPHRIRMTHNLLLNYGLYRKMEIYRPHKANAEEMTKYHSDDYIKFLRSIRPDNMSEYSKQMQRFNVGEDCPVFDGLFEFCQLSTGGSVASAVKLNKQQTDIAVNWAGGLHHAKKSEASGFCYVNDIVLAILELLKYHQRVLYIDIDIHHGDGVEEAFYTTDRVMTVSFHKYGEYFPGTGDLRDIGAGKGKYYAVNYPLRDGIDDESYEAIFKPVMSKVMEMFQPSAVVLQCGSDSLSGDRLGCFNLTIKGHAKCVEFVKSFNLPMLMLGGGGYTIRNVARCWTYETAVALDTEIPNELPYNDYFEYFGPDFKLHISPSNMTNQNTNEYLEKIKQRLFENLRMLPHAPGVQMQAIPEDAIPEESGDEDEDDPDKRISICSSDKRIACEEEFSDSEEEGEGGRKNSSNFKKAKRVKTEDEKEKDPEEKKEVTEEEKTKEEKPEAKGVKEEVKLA
2. Biological Experiments
No unexpected or unusually high safety hazards were encountered.
The human multiple myeloma cell line MM.1S (CRL-2974) was obtained from American Type Culture Collection (ATCC, Manassas, VA, USA). The semi-adherent cells were cultivated in RPMI 1640 medium (Catalog#21875-034, Gibco, ThermoFisher Scientific Inc., Waltham, MA, USA) supplemented with 10% FBS (PAN Biotech GmbH; Aidenbach, Germany), 100 IU/mL penicil lin, 0.1 mg/mL streptomycin (PAN Biotech GmbH) and 1 mM sodium pyruvate (ThermoFisher Scientific Inc.). […]
(PAN Biotech GmbH). All cells were cultured at 37 °C in a 5% CO2 atmosphere. Incubation times, as part of assay protocols, were performed under these conditions as well. The semi-adherent MM.1S were detached mechanically by using a cell scraper and the adhered […] were trypsinased by trypsin/EDTA (0.05%/0.02% in DPBS, PAN Biotech GmbH) whereas the U-87MG were detached by […]
2.2. Simple Western™ Immunoassay
For the cell lysates, MM.1S (0.5 × 10^6 cells/mL) or U-87MG (0.18 × 10^6 cells/mL) cells were seeded and incubated with the indicated concentration of compound or vehicle (DMSO) for the given time. The adherent cells were cultured for 24 h under cell culture conditions for attachment before treatment. Cell lysis was performed with Cell Extraction Buffer (10 mM Tris, pH 7.4, 100 mM NaCl, 1 mM EDTA, […]
SDS, 0.5% deoxycholate; Catalog# FNN0011, Thermo Fisher Scientific Inc., Waltham, MA, USA) with addition of Halt Protease Inhibitor Cocktail (100×) (Catalog# 78429, Life Technologies GmbH, Carlsbad, CA, USA) and phenylmethanesulfonyl fluoride (Catalog# 10837091001, Sigma-Aldrich, St.
Louis, MO, USA) according to manufacturer´s instructions. Protein content was determined by Pierce™ BCA Protein Assay Kit (Catalog# 23225, Thermo Fisher Scientific Inc.) according to manufacturer´s guidelines. Cell lysates were diluted to a final concentration of 1 mg/mL and denatured according to manufacturer’s guidelines. Anti-HDAC1 (Catalog# 5356S, Cell Signaling Technology, Denver, MA, USA), anti-HDAC6 (Catalog#7558S, Cell Signaling Technology) and anti-GAPDH (Catalog# 2118S, […]
Fluorescence Separation 8x25 Capillary Cartridges (Catalog# SM-FL004-1, Protein Simple, Bio-Techne, Minneapolis, MN, USA) were used for separation and the Anti-Mouse Detection Module (Catalog# DM-002, Protein Simple) was used for detection with addition of 20x Anti-Rabbit HRP […]
Conjugate (Catalog# 043-426, Protein Simple) according to manufacturer´s instructions. The assay was performed with the Jess Simple Western System (catalog# 004-650, Protein Simple), according to manufacturer´s settings. Evaluation and quantification was performed with the compass software (6.2.0, Protein Simple). GraphPad Prism (GraphPad Software, San Diego, CA, USA) was used for normalization, statistical analysis and bar graph creation. Significance testing was performed with a one-way analysis of variance (ANOVA). […]
of each mean compared to a reference mean value. […]
AMC (Catalog# 233691-67-3, BLD pharma) was prepared with and without IGEPAL CA-630 (0.5%, Catalog# J61055, Alfa Aesar). 10 µL of the substrate solution was added and incubated for 3 h under cell culture conditions. The reaction was stopped with 100 µL of stop solution (50 mM Tris-HCl, […]
Trypsin) and incubated for 1.5 h under cell culture conditions. The fluorescence signal was measured by a FLUOstar OPTIMA microplate reader (BMG labtech, Ortenburg, Germany) at excitation of λ = 355 nm and emission of λ = 460 nm. All Compounds were tested in two independent experiments in duplicates and IC50 was determined by nonlinear regression with GraphPad Prim.

The subject of experiment [2] is MM.1S cells. As to the kind of experiment: Cell cycle analysis by PI staining and flow cytometry. Type of experiment: cell-based, human. The settings on record: 10 μM, 48 h. As to the method: GraphPad Prism (GraphPad Software). […]
Biotech), resuspended in 1 mL EtOH/D PBS (7/3 v/v), and fixed for 30 min at 4 °C. The samples were rehydrated with DPBS and treated with 5 µg /mL RNAse ( Catalog# EN0531 , ThermoFisher Scientific Inc.) for 15 min at room temperature. The staining was performed with 3 µM propidium iodide (in DPBS) for 15 min at room temperature and analyzed by flow cytometry ( Guava easyCyteTM, Luminex, […]
Lakes, NJ, USA), using the Watson Pragmatic algorithm.[6] GraphPad Prism (GraphPad Software) was used for normalization, statistical analysis, and bar graph creation. Significance testing was performed with a one-way analysis of variance (ANOVA). Dunnett’s post-hoc test was employed to obtain […]
Final DMSO concentration was 0.1%.
Staining was performed with
Fluorescence was measured by flow cytometry (Guava® easyCyteTM, Luminex, Austin, Texas). GraphPad Prism (GraphPad Software) was used for normalization, statistical analysis, and bar graph creation. Significance testing was performed with a one-way analysis of variance (ANOVA).
Subsequently, cells were harvested and […]
After 30 minutes of incubation at […]
Dunnett’s post-hoc test was employed
For orientation: In flow cytometry, cells or beads pass a laser one at a time.

A further experiment relates to MDA-MB-231 cells. As to the kind of experiment: Clonogenic growth assay. Type of experiment: cell-based, human. Particulars: 10 μM for 48 h, nine days of growth. As to the method:
Figure 9 Clonogenic growth assay of DCAF11‐recruiting PROTACs. MDA‐MB‐231 cells were treated with 10 μM of the respective compound or vehicle (DMSO) for 48 hours. (A) Representative images of crystal violet stained colonies after nine days of growth. (B) Quantification of counted colonies, presented as mean ± standard deviation of three biological replicates, each performed in triplicates. Significance of quantification compared to vehicle: ns=p≥0.05; **=p≤0.01 and ***=p≤0.001. […]
Subsequently, cells were harvested and
plated in 6-well plates at a density of 750 cells per well in triplicates. The cell culture medium was
changed after five days. Nine days after plating, the colonies were carefully washed with 500 µL DPBS
and stained with 500 µL crystal violet solution (0.5% in methanol). After 30 minutes of incubation at
room temperature, the wells were gently rinsed with deionized water. After counting the formed
colonies, GraphPad Prism (GraphPad Software) was used for bar graph creation. Significance testing
was performed with a one-way analysis of variance (ANOVA). Dunnett’s post-hoc test was employed
to obtain significance levels of each mean compared to a reference mean value.

Where [3] appears, read: MM.1S cells, n.e.: no effect (≤25% effect up to 50 μM), read-out: EC50 antiproliferative activity.
The mark [4] stands for this setting: MM.1S cells, n.e.: no effect (≤25% effect up to 50 μM).

Read-outs that look alike come from different tables or passages of the source.

`O=C(CCCCCCNC(=O)c1ccc(NC(=O)c2ccc(N(C(=O)CCl)C(C(=O)NCc3ccccc3)c3ccc(Cl)c(Cl)c3)cc2)cc1)NO` (stereo not shown) [Compound 1a]: the EC50 (usually the concentration giving half of the maximal effect) with MM.1S cells [1] (setting [3]) came out at 34 ± 6 µM. Moreover, the EC50 antiproliferative activity result with MM.1S cells [1] (setting [4]) was “diminished antiproliferative activity”.

As for `O=C(CCCCCCNC(=O)c1ccc(NC(=O)[C@H]2CC[C@H](CN(C(=O)CCl)C(C(=O)NCc3ccccc3)c3ccc(Cl)c(Cl)c3)CC2)cc1)NO` (stereo partly shown) [Compound 1b], in the experiment on MM.1S cells [1] (setting [3]), the EC50 worked out at 18 ± 3 µM. The EC50 antiproliferative activity result with MM.1S cells [1] (setting [4]) is reported as “diminished antiproliferative activity”.

As for `O=C(CCCCCCNC(=O)c1ccc(NC(=O)CCOCCOCCN(C(=O)CCl)C(C(=O)NCc2ccccc2)c2ccc(Cl)c(Cl)c2)cc1)NO` (stereo not shown) [Compound 1c], the EC50 with MM.1S cells [1] (setting [3]) came out at 6.2 ± 0.7 µM.

For the molecule `O=C(CCCCCCNC(=O)c1ccc(NC(=O)CCOCCOCCOCCN(C(=O)CCl)C(C(=O)NCc2ccccc2)c2ccc(Cl)c(Cl)c2)cc1)NO` (stereo not shown) [Compound 1d], the EC50 in the experiment with MM.1S cells [1] (setting [3]) is 6.9 ± 0.6 µM.

Regarding `O=C(CCCCCCNC(=O)c1ccc(NC(=O)CCOCCOCCOCCOCCN(C(=O)CCl)C(C(=O)NCc2ccccc2)c2ccc(Cl)c(Cl)c2)cc1)NO` (stereo not shown) [Compound 1e], the “reduction of HDAC1 levels” value at HDAC1 turned out to be 51%. Besides, the EC50 with MM.1S cells [1] (setting [3]) stood at 7.3 ± 0.5 µM.

As to `O=C(CCCCCCNC(=O)c1ccc(NC(=O)CN(C(=O)CCl)C(C(=O)NCc2ccccc2)c2ccc(Cl)c(Cl)c2)cc1)NO` (stereo not shown) [Compound 1f], in the experiment on MM.1S cells [1] (setting [3]), the EC50 was 19 ± 3 µM.

In the case of `O=C(CCCCCCNC(=O)c1ccc(NC(=O)CCCN(C(=O)CCl)C(C(=O)NCc2ccccc2)c2ccc(Cl)c(Cl)c2)cc1)NO` (stereo not shown) [Compound 1g], in the experiment with MM.1S cells [1] (setting [3]), the EC50 is 16 ± 2 µM.

Consider `O=C(CCCCCCNC(=O)c1ccc(NC(=O)CCCCCN(C(=O)CCl)C(C(=O)NCc2ccccc2)c2ccc(Cl)c(Cl)c2)cc1)NO` (stereo not shown) [Compound 1h], for which, at HDAC1, the “reduction of HDAC1 levels” value is “did not reduce HDAC1 levels”. Moreover, the EC50 in the experiment on MM.1S cells [1] (setting [3]) came out at 18 ± 7 µM.

As to `O=C(CCCCCCNC(=O)c1ccc(NC(=O)CCCCCCCN(C(=O)CCl)C(C(=O)NCc2ccccc2)c2ccc(Cl)c(Cl)c2)cc1)NO` (stereo not shown) [Compound 1i], the EC50 with MM.1S cells [1] (setting [3]) was 12 ± 2 µM.

Consider `O=C(CCCCCCNC(=O)c1cnc(N(c2ccccc2)c2ccccc2)nc1)NO` [Ricolinostat, ricolinostat, reference compound], for which, in the experiment with MM.1S cells [2], the “effect on cell cycle phases” value is recorded as “stronger effects on the different phases of the cell cycle”. Also, the “reduction of colonies (clonogenic growth)” value with MDA-MB-231 cells was “less pronounced and not significant”. In the experiment with MM.1S cells [1] (read-out: EC50 MM.1S), the EC50 was determined as 3 ± 0.6 µM.
